Data published in patent publication US6316423A, “Method of treating ischemic, hypoxic and anoxic brain damage” (priority 1999, dated 2001).
“Also recorded” adds a separate entry of the source.

Legend:
[1] = system: neurons of hippocampal CA1 region; assay: Neuronal survival 14 days after 10 minute ischemia, postischemic ADAC; assay type: in vivo, gerbil; conditions: control 25±3%
Method: At the end of the survival monitoring period (14 days), control and drug treated survivors were heavily anesthetized with Nembutal (60 mg/kg, intraperitoneally), and perfused with phosphate buffered (pH 7.4) 3.5% formaldehyde as described previously (Lin et al., Neurosci., 2, 289 (1990). The sections were stained with the method of Nissl, and the extent of the neuronal loss in the hippocampal region was investigated according to a standard procedure as disclosed in the art (von Lubitz et al., (1992) supra; 1994)supra.

[2] = Open field locomotor activity in nonischemic gerbils; assay type: in vivo, gerbil; conditions: 0.1 mg/kg (100 μg/kg)
[3] = system: gerbils exposed to 10 minutes of ischemia; assay: Survival rate following 10 minutes of ischemia, postischemic ADAC; assay type: in vivo, gerbil
Method: In the three remaining treatment groups (i.e., 3, 6, and 12 hours) numerical improvement was apparent, but statistical significance of (P<0.05) was lost probably owing to the sample sizes. […] To prevent selection of overly robust animals into these groups, the data were not normalized to account for pre-treatment mortalities.

[4] = molecular target: Rat A2 adenosine receptor; assay: Affinity for A2 adenosine receptor isolated from rats; assay type: binding; conditions: rat A2 adenosine receptors; read-out: Ki for Rat A2 Receptors (printed K1)
Text: Table 3 below indicates the structure and Ki values for these compounds. Thus, each of these compounds is expected to find utility in the context of the present invention. The five analogues indicated within Table 3 are given for the purposes of illustrating the nature of ADAC-analogues and is not meant to be comprehensive. Additionally, these compounds can be synthesized using a similar approach as the one employed for ADAC. These methods are known in the art. For example, the synthesis of these compounds can be guided by U.S. Pat. No. 5,248,770 or by Jacobson et al., Journal of Medicinal Chemistry, 28, 1341-1346 (1985).

[5] = system: gerbils subjected to 10 minutes of ischemia; assay: Postischemic Morris water maze test (spatial memory); assay type: in vivo, gerbil
Method: The Morris water maze (Morris et al., supra) is now considered the most direct means of assessing post-ischemic memory and learning of spatially oriented tasks (Corbett et al., Neuroreport, 3, 204 (1992)). This test is well known in the art and the specific parameters of this test as used herein are defined below. Female gerbils (Tumblebrook Farms, Mass.) weighing 70 g were used in the study. Prior to inclusion in the experiments, animals were tested for susceptibility to spontaneous seizures using the method described by Lee et al., Neuropharmacol., 5, 517 (1984). Seizure-prone gerbils were rejected.
The details of the water maze are known in the art (von Lubitz et al., 1993 supra). Briefly, the system consists of a tank (1 m diameter) which is filled with opaque water to a depth of 30 cm. The tank contains a colorless target platform (15 cm diameter) submerged to a depth of 1.5 cm and placed in the center of the north-west quadrant. […]
Prior to subjecting the gerbils to 10 minutes of ischemia, the gerbils were randomly divided into the control and the drug testing groups. […] During post-ischemic recovery, animals were monitored each day for signs of functional damage (e.g., pareses) that might affect their subsequent water maze performance. Postischemic mortality was also monitored every day.

[6] = 0.1 mg/kg ADAC 15 min post ischemia
[7] = 0.1 mg/kg ADAC 30 min post ischemia
[8] = 0.1 mg/kg ADAC 2 hour post ischemia
[9] = 0.1 mg/kg ADAC 3 hour post ischemia
[10] = 0.1 mg/kg ADAC 6 hour post ischemia
[11] = 0.1 mg/kg ADAC 12 hour post ischemia

In the case of `NCCNC(=O)Cc1ccc(NC(=O)Cc2ccc(Nc3ncnc4c3ncn4[C@@H]3O[C@H](CO)[C@@H](O)[C@H]3O)cc2)cc1` [ADAC], the CA1 neuronal preservation ([1]; ADAC at 0.5, 2 or 3 hours postischemia) is reported as ~ 75%, the CA1 neurons surviving ([1]; ADAC at 15 minutes, 6 or 12 hours postischemia) is reported as “approximately 60%” and the “CA1 neurons still intact” value ([1]; ADAC at 1 hour postischemia) is reported as 88±4%. For the same molecule, the “behavioral changes by open field locomotor activity testing” value [2] was “does not induce behavioral changes; also recorded: did not induce any behavioral changes”, the “Survival Rate 24 h postischemia” value [3, 6] was 100% and the “Survival Rate 14 days postischemia” value [3, 6] was 70%. The “Survival Rate 24 h postischemia” value [3, 7] was 100%, the “Survival Rate 14 days postischemia” value [3, 7] was 90% and the “Survival Rate 24 h postischemia” value ([3]; 0.1 mg/kg ADAC 1 hour post ischemia) was 80%. For the same molecule, the “Survival Rate 24 h postischemia” value [3, 8] was 80%, the “Survival Rate 14 days postischemia” value [3, 8] was 80% and the “Survival Rate 24 h postischemia” value [3, 9] was 60%. The “Survival Rate 14 days postischemia” value [3, 9] was 50%, the “Survival Rate 24 h postischemia” value [3, 10] was 50% and the “Survival Rate 14 days postischemia” value [3, 10] was 50%. The “Survival Rate 24 h postischemia” value [3, 11] was 60%, the “Survival Rate 14 days postischemia” value [3, 11] was 50% and the Ki [4] was 210 nM. The “preference for target quadrant in postischemic probe trial” value ([5]; FIG. 2, controls lost all preference) was “retained a high preference for the target quadrant” and the “recovery of postischemic water maze performance” value ([5]; preischemic ADAC, FIG. 1) was “regained water maze performance levels that mirrored the plateau level obtained in preischemic training almost immediately (trial 2, day 9)”.
